In patent publication US20250154288A1, “CYTOTOXICITY TARGETING CHIMERAS FOR C-C CHEMOKINE RECEPTOR 2-EXPRESSING CELLS” (GLAXOSMITHKLINE INTELLECTUAL PROPERTY DEVELOPMENT LIMITED, priority 2022, published 2025):
Where a name gives a salt, the structure may show the parent alone.

Key:
[1] = test system: CCR2 expressing cells (CD11b+Ly6c+ Hi) in peripheral blood; test: In Vivo Depletion Assay (flow cytometry of peripheral blood); design: species or system Human CCR2 (hCCR2) knock-in mice; conditions: hCCR2 knock-in mice; IV 0.1 mpk compound + 10 mpk anti-cotinine antibody (mouse IgG2a Fc); peripheral blood at 48 hr
Method: Human CCR2 (hCCR2) knock-in mice (057 background) were dosed intravenously with a PBS solution containing a compound of Formula (I) to measure depletion of CCR2 expressing cells in peripheral blood. Peripheral blood from IV dosed mice was also analyzed to determine PK properties of the ARM compounds of Formula (I).
Stock solution preparation: Stock solutions of compounds of Formula (I) were prepared at 20 mg/mL and 100 mg/mL in DMSO for PK/PD and dose tolerability studies respectively. Stock solutions were stored at −20° C. until further usage.
Formulations preparation: On the day of experiment, the stock solution of the compound of Formula (I) was removed from storage at −20° C. and thawed at room temperature. Anti-cotinine antibody having a heavy chain sequence of SEQ ID NO: 13 and a light chain sequence of SEQ ID NO: 14 (rabbit variable region sequence with mouse IgG2a Fc domain), if required was removed from storage at −80° C. and thawed at room temperature. Antibody vials were immediately transferred into wet ice after thawing. Compounds of Formula (I) were further diluted in DMSO as per experimental requirements.
Formulation composition: The formulation composition was Saline: DMSO: PBS. Saline was added based on the quantity required and then stock solution of the compound of Formula (I) prepared in DMSO, followed by addition of antibody in PBS. Formulations were incubated at room temperature for 30 minutes before administration to the mouse. DMSO was used at 1 to 2% (v/v) in the final formulation.
Administration to Animal: Solution formulation of antibody and compound of Formula (I) was injected (bolus injection) to the restrained mouse in the right/left lateral tail vein. Animals were dosed with 0.1 milligram per kilogram (mpk) of the compound of Formula (I) and 10 mpk of the anti-cotinine antibody.
Terminal bleeding at end of experiment (48 hr): Approximately 250 μL of blood in K2EDTA tube and approximately 250 μL of blood in SST (serum separation tube) was collected from each mouse through retro-orbital bleeding under deep isoflurane anesthesia. After bleeding, each mouse was sacrificed by cervical dislocation. The blood distribution at termination was determined as follows: • For PK: 50 μL of K2EDTA blood was transferred to another tube for PK • Flow cytometry: Remaining blood (˜200 μL) was used for flow cytometry analysis. • For serum collection: serum separator tubes (BD) were centrifuged at 4° C., 5000 rpm for 15 minutes. Approximately 100 μL serum was separated and stored at −80° C. for further usage. • Blood drug concentration: Samples collected at the various timepoints (0.25 hr, 2 hr, 24 and 48 hr) were analyzed to determine blood drug concentration.
CCR2 depletion in peripheral blood was determined by flow cytometry. Briefly, peripheral blood was collected from all animals at the end of study termination and processed. Blood samples were lysed using 1×RBC Lysis buffer and the resulting cell pellet was washed twice in FACS buffer (HBSS containing 5% FBS). Cells were subjected to Fc blocking using mouse Fc block from Biolegend (Trustain, anti-mouse CD16/32, Cat: 101319) to block non-specific binding followed by surface staining for immune markers (CD45, CD3, CD11b, Ly6C, human CCR2). Surface staining was done for 30 minutes in ice and cells were washed twice to remove unbound antibodies. Cells were stained with 7AAD to determine viability and acquired on BD FACSVerse flow cytometer. Appropriate FMO controls and single-color controls were included in the experiment for gating and compensation respectively.
Percent depletion of CD11b+Ly6c+ Hi cells and CCR2 expression for the different treatment groups was determined. The results are shown below in Table 4 and are reported as percent (%) depletion of CCR2 expressing cells.

[2] = target: T1, CHOK1 cells engineered to overexpress human CCR2 (Homo sapiens, UniProt P41597); test: Antibody Dependent Cellular Cytotoxicity (ADCC) Reporter Assay; format: cell-based; conditions: with anti-cotinine antibody (human IgG1 Fc, S239D/I332E); Jurkat FcγRIIIa NFAT-luciferase reporter cells; average if several runs; read-out: ADCC Reporter Assay pEC50 (converted)
T1 construct: expressed in transfected cells; host or cells: CHOK1
Summary of the method: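 CHOK1-hCCR2 target cells co-incubated ~12-18 h with compound (1 pM–10 μM), anti-cotinine rabbit/human IgG1 S239D/I332E antibody (0.01–200 μg/mL) and Jurkat FcγRIIIa NFAT-luciferase reporter cells. Luminescence signal:background versus no-compound wells; EC50 from four-parameter fit, reported as pEC50, averaged over runs.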

Row | SMILES | % Depletion of CCR2 expressing cells [1] [%] | EC50 [2] [nM]
1 | CO[C@@H]1COCC[C@@H]1N[C@@H]1CC[C@](COCCNC(=O)[C@H]2CC[C@H](NC(=O)CCCO[C@H]3CC[C@H](OCCNC(=O)[C@H]4CC(=O)N(C)[C@@H]4c4cccnc4)CC3)CC2)(C(=O)N2CCc3ncc(C(F)(F)F)cc3C2)C1 [Example 11, (2S,3S)-N-(2-(((1R,4S)-4-(4-(((1S,4R)-4-((2-(((1S,3R)-3-(((3S,4S)-3-Methoxytetrahydro-2H-pyran-4-yl)amino)-1-(3-(trifluoromethyl)-5,6,7,8-tetrahydro-1,6-naphthyridine-6-carbonyl)cyclopentyl)methoxy)ethyl)carbamoyl)cyclohexyl)amino)-4-oxobutoxy)cyclohexyl)oxy)ethyl)-1-methyl-5-oxo-2-(pyridin-3-yl)pyrrolidine-3-carboxamide] | 89.3 | 2.51
2 | CO[C@@H]1COCC[C@@H]1N[C@@H]1CC[C@@](C(=O)N2Cc3cc(C(F)(F)F)cnc3[C@H](NC(=O)[C@H]3CC[C@H](NC(=O)CCCO[C@H]4CC[C@H](OCCNC(=O)[C@H]5CC(=O)N(C)[C@@H]5c5cccnc5)CC4)CC3)C2)(C(C)C)C1 [Example 14, (2S,3S)-N-(2-(((1R,4S)-4-(4-(((1R,4R)-4-(((R)-6-((1S,3R)-1-isopropyl-3-(((3S,4S)-3-methoxytetrahydro-2H-pyran-4-yl)amino)cyclopentane-1-carbonyl)-3-(trifluoromethyl)-5,6,7,8-tetrahydro-1,6-naphthyridin-8-yl)carbamoyl)cyclohexyl)amino)-4-oxobutoxy)cyclohexyl)oxy)ethyl)-1-methyl-5-oxo-2-(pyridin-3-yl)pyrrolidine-3-carboxamide, 3Formic acid salt] | 92.3 | < 0.002
3 | CO[C@@H]1COCC[C@@H]1N[C@@H]1CC[C@@](C(=O)N2Cc3cc(C(F)(F)F)cnc3[C@@H](NC(=O)[C@H]3CC[C@H](NC(=O)CCCO[C@H]4CC[C@H](OCCNC(=O)[C@H]5CC(=O)N(C)[C@@H]5c5cccnc5)CC4)CC3)C2)(C(C)C)C1 [Example 15, (2S,3S)-N-(2-(((1R,4S)-4-(4-(((1S,4R)-4-(((S)-6-((1S,3R)-1-isopropyl-3-(((3S,4S)-3-methoxytetrahydro-2H-pyran-4-yl)amino)cyclopentane-1-carbonyl)-3-(trifluoromethyl)-5,6,7,8-tetrahydro-1,6-naphthyridin-8-yl)carbamoyl)cyclohexyl)amino)-4-oxobutoxy)cyclohexyl)oxy)ethyl)-1-methyl-5-oxo-2-(pyridin-3-yl)pyrrolidine-3-carboxamide] | 94.04 | 0.2
4 | CO[C@@H]1COCC[C@@H]1N[C@@H]1CC[C@](CCCNC(=O)[C@H]2CC[C@@H](NC(=O)CCOCCOCCOCCNC(=O)[C@H]3CC(=O)N(C)[C@@H]3c3cccnc3)CC2)(C(=O)N2CCc3ncc(C(F)(F)F)cc3C2)C1 [Example 17, (2S,3S)—N-(2-(2-(2-(3-(((1R,4s)-4-((3-((1S,3R)-3-(((3S,4S)-3-Methoxytetrahydro-2H-pyran-4-yl)amino)-1-(3-(trifluoromethyl)-5,6,7,8-tetrahydro-1,6-naphthyridine-6-carbonyl)cyclopentyl)propyl)carbamoyl)cyclohexyl)amino)-3-oxopropoxy)ethoxy)ethoxy)ethyl)-1-methyl-5-oxo-2-(pyridin-3-yl)pyrrolidine-3-carboxamide, Formic acid salt] | 96.07 | 6.31
5 | CO[C@H]1COCC[C@H]1N[C@H]1CC[C@@](CCCNC(=O)[C@H]2CC[C@@H](NC(=O)CCOCCOCCNC(=O)CCNC(=O)[C@H]3CC(=O)N(C)[C@@H]3c3cccnc3)CC2)(C(=O)N2CCc3ncc(C(F)(F)F)cc3C2)C1 [Example 19, (2S,3S)—N-(3-((2-(2-(3-(((1s,4s)-4-((3-((1R,3S)-3-(((3R,4R)-3-Methoxytetrahydro-2H-pyran-4-yl)amino)-1-(3-(trifluoromethyl)-5,6,7,8-tetrahydro-1,6-naphthyridine-6-carbonyl)cyclopentyl)propyl)carbamoyl)cyclohexyl)amino)-3-oxopropoxy)ethoxy)ethyl)amino)-3-oxopropyl)-1-methyl-5-oxo-2-(pyridin-3-yl)pyrrolidine-3-carboxamide] | 85.39 | 3.16
6 | CO[C@@H]1COCC[C@@H]1N[C@@H]1CC[C@](CCCNC(=O)CCOCCOCCO[C@H]2CC[C@H](OCCNC(=O)[C@H]3CC(=O)N(C)[C@@H]3c3cccnc3)CC2)(C(=O)N2CCc3ncc(C(F)(F)F)cc3C2)C1 [Example 20, ((2S,3S)—N-(2-(((1r,4S)-4-(2-(2-(3-((3-((1S,3R)-3-(((3S,4S)-3-Methoxytetrahydro-2H-pyran-4-yl)amino)-1-(3-(trifluoromethyl)-5,6,7,8-tetrahydro-1,6-naphthyridine-6-carbonyl)cyclopentyl)propyl)amino)-3-oxopropoxy)ethoxy)ethoxy)cyclohexyl)oxy)ethyl)-1-methyl-5-oxo-2-(pyridin-3-yl)pyrrolidine-3-carboxamide, Formic acid salt] | 87.3 | 3.98
7 | CO[C@@H]1COCC[C@@H]1N[C@@H]1CC[C@@](C(=O)N2CCc3nc(CCCCOc4cccc(C(=O)NCCOCCOCCOCCOCCOCCOCCOCCOCCOCCNC(=O)[C@H]5CC(=O)N(C)[C@@H]5c5cccnc5)c4)c(C(F)(F)F)cc3C2)(C(C)C)C1 [Example 22, (2S,3S)—N-(1-(3-(4-(6-((1S,3R)-1-Isopropyl-3-(((3S,4S)-3-methoxytetrahydro-2H-pyran-4-yl)amino)cyclopentane-1-carbonyl)-3-(trifluoromethyl)-5,6,7,8-tetrahydro-1,6-naphthyridin-2-yl)butoxy)phenyl)-1-oxo-5,8,11,14,17,20,23,26,29-nonaoxa-2-azahentriacontan-31-yl)-1-methyl-5-oxo-2-(pyridin-3-yl)pyrrolidine-3-carboxamide] | 89 | 1.58
